Literature values in patent publication US20260158012A1 (Beijing Creatron Institute Of Pharmaceutical Research Co. …, priority 2022, published 2026).
Like-named read-outs stand apart in the source and are kept apart here.

What was measured:
[1] = for Solubility (in words): aqueous media
[2] = not given; remark: listed apart in the source
[3] = dosage increased from 400 mg each time to 600 mg each time
[4] = system: advanced hepatocellular carcinoma
[5] = 7 consecutive days
[6] = trough concentration <1.40 μg/mL
[7] = trough concentration ≥3.45 μg/mL

SMILES: [2H]C([2H])([2H])NC(=O)c1cc(Oc2ccc(NC(=O)Nc3ccc(Cl)c(C(F)(F)F)c3)cc2)ccn1 [Donafenib, 4-[4-[[4-chloro-3-(trifluoromethyl)phenyl]carbamoylamino]phenoxy]-N-(trideuteriomethyl)pyridine-2-carboxamide]
- Solubility [1]: <10 µg/mL
- Solubility (in words) [1]: Practically insoluble in aqueous

SMILES: CNC(=O)c1cc(Oc2ccc(NC(=O)Nc3ccc(Cl)c(C(F)(F)F)c3)cc2)ccn1 [Sorafenib, 4-[4-[[4-chloro-3-(trifluoromethyl)phenyl]carbamoylamino]phenoxy]-N-methylpyridine-2-carboxamide]
- concentration of sorafenib molecules in the solution (pH 1.0): 3400 ng/mL
- concentration of sorafenib molecules in the solution (pH 4.5): 130 ng/mL
- steady state concentration in the blood (plasma) ([2]; after 2 weeks of treatment, renal cell carcinoma patients): 881-12,526 ng/mL
- blood drug concentration of patients who experienced serious adverse reactions ([2]; human, in vivo): exceeded 10,000 ng/ml
- incidence of fatigue ([2]; renal cell carcinoma patients): 55.32%
- incidence of hand-foot syndrome ([2]; renal cell carcinoma patients): 68.99%
- increase in drug exposure [3]: 13%
- overall survival (OS) ([4]; 1.40 μg/mL≤Ctrough<3.45 μg/mL): 17.8 months
- time to treatment failure (TTF) ([4]; 1.40 μg/mL≤Ctrough<3.45 μg/mL): 13.1 months
- overall survival (OS) [4, 6]: 5.3 months
- progression-free survival (PFS) [4, 6]: 4.7 months
- time to treatment failure (TTF) [4, 6]: 4.7 months
- incidence of serious adverse reactions above grade 3 ([4]; trough concentration below 3.45 μg/ml): 26.7%
- incidence of serious adverse reactions above grade 3 ([4]; trough concentration exceeded 3.45 μg/ml): 72.7%
- overall survival (OS) [4, 7]: 9.5 months
- progression-free survival (PFS) [4, 7]: 8.9 months
- time to treatment failure (TTF) [4, 7]: 2.4 months
- Solubility [1]: <10 µg/mL
- oil-water partition coefficient Log P [1]: about 5.6
- Solubility (in words) [1]: Practically insoluble in aqueous
- coefficient of variation of AUC0-12 h at steady state ([5]; 200 mg (Bid) oral): 16.9%
- coefficient of variation of Cmax at steady state ([5]; 200 mg (Bid) oral): 8.6%
- coefficient of variation of AUC0-12 h at steady state ([5]; 400 mg (Bid) oral): 90.5%
- coefficient of variation of Cmax at steady state ([5]; 400 mg (Bid) oral): 106.7%
